{"source": "patent US9402847B2", "about": "“Combinations comprising (S)-4-amino-N-(1-(4-chlorophenyl)-3-hydroxypropyl)-1-(7H-pyrrolo[2,3-d]pyrimidin-4-yl)piperidine-4-carboxamide” (AstraZeneca AB, priority 2011, dated 2016)", "key": {"[1]": {"system": "HCC-1187 breast cancer xenografts", "test": "HCC-1187 breast cancer xenografts in nude mice, tumour volume by calipers", "format": "in vivo", "details": "for efficacy of combination versus docetaxel monotherapy: AZD5363 300 mg/kg once daily, 4 days on, 3 days off, 3 weekly cycles", "experimental": "In these experiments the indicated agent(s) where being administered in 2 weekly dosage cycles, then there was no dosing in the 3rd week (days 15-21 inclusive). The indicated agent(s) were again administered in further weekly dosage cycles from week 4 onwards.\nAnimals were dosed with compounds over a 3 week period (3 weekly cycles of docetaxel and 3 weekly cycles of AZD5363 300 mg/kg once daily, 4 days on, 3 days off). […] Following the 3 weekly cycles of treatment, animals were not treated with compound, and recovery of tumour growth was monitored.\n(§1) Tumour cells were implanted subcutaneously into the flank of nude mice, then a tumour was allowed to grow in each mouse until it reached the desired starting volume for the particular experiment (approximately 0.6 cm^3 for the BT474c experiment, and approximately 0.15 cm^3 for the HCC-1187 experiment). The mice were then randomised into groups—each group destined to receive one of the four treatment regimes described in each of FIGS. 1 and 2. The mice were then dosed as described in FIGS. 1 and 2, where docetaxel was administered intravenously, and Compound (I) (as the free base) was administered orally. Calipers were used to monitor tumour sizes during these experiments, and the results are plotted on the graphs of FIGS. 1 and 2.\n(§2) The BT-474 tumour cell line (human mammary carcinoma) was obtained from Dr Jose Baselga (at Laboratorio Recerca Oncologica, Paseo Vall D'Hebron 119-129, Barcelona 08035, Spain). This cell line was subcloned and a certain population referred herein to as BT474c was obtained. The HCC-1187 cell line is available from ATCC (www.atcc.org)."}, "BT474c model": {"system": "BT474c model", "test": "BT474c tumour xenograft in nude mice, tumour volume by calipers", "format": "in vivo", "experimental": "as §1, §2"}}, "data": [{"molecule": "NC1(C(=O)N[C@@H](CCO)c2ccc(Cl)cc2)CCN(c2ncnc3[nH]ccc23)CC1", "note": "[Compound (I), (S)-4-amino-N-(1-(4-chlorophenyl)-3-hydroxypropyl)-1-(7H-pyrrolo[2,3-d]pyrimidin-4-yl)piperidine-4-carboxamide]", "values": [{"measurement": "antitumour activity, intermittent versus continuous schedule of Compound (I)", "setting": "[1]; FIG. 2, HCC-1187 model, 55-day period, in combination with weekly cycles of docetaxel", "result": "similarly sustained antitumour activity"}, {"measurement": "efficacy of combination versus docetaxel monotherapy", "setting": "[1]; FIG. 3, docetaxel administered 24 hours after the final dose of AZD5363", "result": "antagonistic"}, {"measurement": "efficacy of combination versus docetaxel monotherapy", "setting": "[1]; FIG. 3, docetaxel dosed 1 hour (same day) before first administration of AZD5363", "result": "greater efficacy than docetaxel monotherapy"}, {"measurement": "efficacy of combination versus docetaxel monotherapy", "setting": "[1]; FIG. 3, docetaxel dosed 24 hours (day before) before first administration of AZD5363", "result": "greater efficacy than docetaxel monotherapy"}, {"measurement": "tumour growth delay after the 3 weekly cycles of treatment", "setting": "[1]; FIG. 3, docetaxel administered 1 hour before AZD5363, compared with the other schedules investigated", "result": "longest tumour growth delay"}, {"measurement": "sensitisation to docetaxel", "setting": "BT474c model; BT474c model, single dose of docetaxel", "result": "greatly sensitise"}, {"measurement": "effect at regulating tumour volume, combination compared with either component alone", "setting": "BT474c model; Compound (I) in combination with docetaxel", "result": "more than an additive effect"}, {"measurement": "change in tumour volume", "setting": "BT474c model; FIG. 1, BT474c model, 16-day period, Compound (I) free base orally in combination with docetaxel intravenously", "result": "significant tumour shrinkage"}]}]}
